According to patent US10179789B2, “Methylenedioxybenzo [I] phenanthridine derivatives used to treat cancer” (Rutgers, The State University of New Jersey, priority 2009, dated 2019):
pIC50: −log10 of the molar value. Read-outs that look alike come from different tables or passages of the source.

How the values were obtained:
human topoisomerase I = target: T1, human topoisomerase I (Homo sapiens, UniProt P11387); test: Test A. Topoisomerase I-mediated DNA cleavage assay; format: biochemical; details: Relative Effective Concentration; relative to camptothecin arbitrarily assumed as 0.2; same 10% cleavage on plasmid DNA
T1 construct: unnamed fusion partner (recombinant fusion protein, T7 expression system); made in house; host or cells: Escherichia coli
T1 sequence (P11387 1-765): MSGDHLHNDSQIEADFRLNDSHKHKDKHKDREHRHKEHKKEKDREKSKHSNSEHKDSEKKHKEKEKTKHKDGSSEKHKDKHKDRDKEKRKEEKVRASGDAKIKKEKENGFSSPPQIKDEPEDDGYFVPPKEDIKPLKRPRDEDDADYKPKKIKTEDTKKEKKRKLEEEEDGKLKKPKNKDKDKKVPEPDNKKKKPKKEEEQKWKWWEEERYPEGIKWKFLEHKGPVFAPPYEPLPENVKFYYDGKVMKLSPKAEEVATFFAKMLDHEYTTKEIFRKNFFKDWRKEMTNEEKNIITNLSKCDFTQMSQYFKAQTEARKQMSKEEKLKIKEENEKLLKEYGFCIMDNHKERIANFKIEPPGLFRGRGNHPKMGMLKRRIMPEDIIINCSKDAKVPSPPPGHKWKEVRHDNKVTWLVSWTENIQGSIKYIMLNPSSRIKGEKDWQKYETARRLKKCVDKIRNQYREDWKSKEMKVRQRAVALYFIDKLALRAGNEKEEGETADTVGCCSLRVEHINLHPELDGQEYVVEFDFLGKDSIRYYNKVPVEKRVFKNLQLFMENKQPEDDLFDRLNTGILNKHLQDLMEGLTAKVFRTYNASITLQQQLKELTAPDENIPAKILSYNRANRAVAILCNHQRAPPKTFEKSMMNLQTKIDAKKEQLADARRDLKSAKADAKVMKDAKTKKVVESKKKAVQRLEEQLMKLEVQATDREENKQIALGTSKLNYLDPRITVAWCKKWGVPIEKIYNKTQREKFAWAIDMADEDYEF
From the text: Test A. Topoisomerase I—Mediated DNA Cleavage Assay Human topoisomerase I was expressed in Escherichia coli and isolated as a recombinant fusion protein using a T7 expression system as described previously (31). Plasmid YepG was also purified by the alkali lysis method followed by phenol deproteination and CsCl/ethidium isopycnic centrifugation method as described (32). The 3′ end labeling of the plasmid was accomplished by digestion with a restriction enzyme followed by end filling with Klenow polymerase as previously described (33). The cleavage assays were performed as previously reported (34,35). The drug and the DNA in presence of topoisomerase I was incubated for 30 min at room temperature. The reactions were terminated by the addition of 5 μL of 5% SDS and 1 mg/mL […] with an additional 1 h of incubation at 37° C. […] After development of the gels, typically 24-h exposure was used to obtain autoradiograms outlining the extent of DNA fragmentation. Topoisomerase I-mediated DNA cleavage values are reported as Relative Effective Concentration (REC). […] Results for the assay for representative compounds of the invention of formula I along with comparison compounds are shown in Table 1.

BCRP = test: Cytotoxicity on KBH5.0 (overexpresses BCRP); format: cell-based; details: human
Procedure: (§1) The cytotoxicity was determined using the MTT-microtiter plate tetrazolinium cytotoxicity assay (MTA). The human lymphoblast RPMI 8402 and its camptothecin-resistant variant cell line, CPT-K5 was provided by Dr. Toshiwo Andoh (Aichi Cancer Center Research Institute, Nagoya, Japan). (36) The P388 mouse leukemia cell line and its CPT-resistant TOP1-deficient variant P388/CPT45 (37) were obtained from Michael R. Mattern and Randal K. Johnson (GlaxoSmithKline, King of Prussia, Pa.). The KB3-1 cell line and its multidrug-resistant variant KBV-1 (38) were obtained from K. V. Chin (The Cancer Institute of New Jersey, New Brunswick, N.J.). The KBH5.0 cell line as noted previously (21) was derived from KB3-1 by stepwise selection against Hoechst 33342. The cytotoxicity assay was performed using 96-well microtiter plates. Cells were grown in suspension at 37° C. in 5% CO2 and maintained by regular passage in RPMI medium supplemented with 10% heat inactivated fetal bovine serum, L-glutamine (2 mM), penicillin (100 U/mL), and Streptomycin (0.1 mg/mL). For determination of IC50, cells were exposed continuously for FOUR days to varying concentrations of drug, and MTT assays were performed at the end of the fourth day. […] All assays were performed at least twice in six replicate wells.
(§2) The cytotoxicity of the representative compounds of the invention were also tested on cell line KB3-1 (parent cell line), KBV-1 (a variant that overexpresses efflux transporter MDR1) and KBH5.0 (a variant that overexpresses BCRP). Differences in the relative cytotoxicity between the parent and variant cell lines may be indicative of a compound that is a substrate for an efflux transporter. […] Accordingly, compounds of the invention of formula I may be useful to treat tumors that are resistant to other anticancer agents, especially anticancer agents that are susceptible to efflux by BCRP (e.g. anthracyclines, mitoxantrone, topotecan, irinotecan, bisanthrone, doxorubicin, daunorubicin, and epirubin.

[1] = tested on: CPT-K5 (camptothecin-resistant variant of RPMI 8402); test: Test B. MTT cytotoxicity assay, CPT-K5; format: cell-based, human
Procedure: (§3) Test B. Cytotoxic Assays (Cancer Cell Lines and Efflux Transporter Cell Lines)
as §1

[2] = tested on: P388 mouse leukemia cell line; test: Test B. MTT cytotoxicity assay, P388; format: cell-based
Procedure: as §3, §1

[3] = Cytotoxicity on KB3-1 (parent cell line); format: cell-based; details: human
Procedure: as §1, §2

[4] = tested on: P388/CPT45 (CPT-resistant TOP1-deficient variant of P388); test: Test B. MTT cytotoxicity assay, P388/CPT45; format: cell-based, mouse; details: read-out: Cytotoxicity IC50 P388/CPT45
Procedure: as §3, §1

[5] = tested on: RPMI 8402 human lymphoblast cells; test: Test B. MTT cytotoxicity assay, RPMI8402; format: cell-based
Procedure: as §3, §1

MDR1 = test: Cytotoxicity on KBV-1 (overexpresses MDR1); format: cell-based; details: human
Procedure: as §1, §2

[6] = tested on: KBH5.0 (variant that overexpresses BCRP); test: Cytotoxicity on KBH5.0 (overexpresses BCRP); format: cell-based; details: for substrate for BCRP: not told
Procedure: as §1, §2

KB3-1 cell line = test: Cytotoxicity on KB3-1 (parent cell line); format: cell-based
Procedure: as §1, §2

[7] = tested on: KBV-1 (variant that overexpresses efflux transporter MDR1); test: Cytotoxicity on KBV-1 (overexpresses MDR1); format: cell-based
Procedure: as §1, §2

[8] = Homo sapiens, CPT-K5, 96 h, read-out: Cytotoxicity IC50 CPT-K5
[9] = Mus musculus, P388, 96 h, read-out: Cytotoxicity IC50 P388
[10] = Homo sapiens, RPMI 8402, 96 h, read-out: Cytotoxicity IC50 RPMI8402

| TOP1 Mediated DNA Cleavage (REC Value) (human topoisomerase I) | melting point | Structure (SMILES) | pIC50 ([4]; Mus musculus, P388CPT45, 96 h) | IC50 at 4 days (BCRP) | pIC50 [1, 8] | pIC50 [2, 9] | IC50 at 4 days [3] | pIC50 [5, 10] | IC50 at 4 days (MDR1) | also measured |
| --- | --- | --- | --- | --- | --- | --- | --- | --- | --- | --- |
| 1.1 | 269 to 271 °C (dec.) | COc1cc2c(C(=O)NCC(C)(C)N)cc3c4cc5c(cc4ncc3c2cc1OC)OCO5 [Compound 33, N-(2-Amino-2-methylpropyl)-2,3-dimethoxy-8,9-methylenedioxybenzo[i]phenanthridine-12-carboxamide] | 6.12 | 190 nM | 5.66 | 7.70 | 4 nM | 8.00 | 480 nM | – |
| 0.09 | 222 to 225 °C | COc1cc2cc(C(=O)NCC(C)(C)N(C)C)c3c4cc5c(cc4ncc3c2cc1OC)OCO5 [Compound 34, 2,3-Dimethoxy-8,9-methylenedioxybenzo[i]phenanthridine-11-carboxylic acid 2-(dimethylamino)-2-methylpropylamide] | 6.64 | 10 nM | 6.30 | 8.70 | 3 nM | 8.52 | 65 nM | substrate for BCRP [6]: not substrates for BCRP |
| 2.3 | 228 to 230 °C | COc1cc2c(C(=O)NCCC(C)(C)N(C)C)cc3c4cc5c(cc4ncc3c2cc1OC)OCO5 [Compound 42, 2,3-Dimethoxy-N-(3-(dimethylamino)-3-methylbutyl)-8,9-methylenedioxybenzo[i]phenanthridine-12-carboxamide] | 6.28 | 160 nM | 5.68 | 7.05 | 50 nM | 7.60 | 2500 nM | – |
| 3.4 | 235 to 237 °C | COc1cc2c(C(=O)NCCCC(C)(C)N(C)C)cc3c4cc5c(cc4ncc3c2cc1OC)OCO5 [Compound 43, 2,3-Dimethoxy-N-(4-(dimethylamino)-4-methylpentyl)-8,9-methylenedioxybenzo[i]phenanthridine-12-carboxamide] | 6.40 | 600 nM | 5.52 | 6.74 | 250 nM | 6.80 | 2800 nM | – |
| 0.4 | 233 to 235 °C | COc1cc2cc(C(=O)NCCC(C)(C)N(C)C)c3c4cc5c(cc4ncc3c2cc1OC)OCO5 [Compound 44, 2,3-Dimethoxy-8,9-methylenedioxybenzo[i]phenanthridine-11-carboxylic acid 3-(dimethylamino)-3-methylbutylamide] | 5.90 | 470 nM | 5.30 | 6.57 | 240 nM | 6.82 | > 10000 nM | – |
| 2.5 | 239 to 242 °C | COc1cc2cc(C(=O)NCCCC(C)(C)N(C)C)c3c4cc5c(cc4ncc3c2cc1OC)OCO5 [Compound 45, 2,3-Dimethoxy-8,9-methylenedioxybenzo[i]phenanthridine-11-carboxylic acid 4-(dimethylamino)-4-methylpentylamide] | 5.49 | 850 nM | 5.26 | 6.55 | 210 nM | 6.55 | > 10000 nM | – |
| 0.1 | – | COc1cc2c(C(=O)NCCN(C)C)cc3c4cc5c(cc4ncc3c2cc1OC)OCO5 [Compound 206, reference compound] | 6.49 | 60 nM | 6.00 | 8.52 | 5 nM | 8.52 | 220 nM | – |
| 0.2 | – | COc1cc2cc(C(=O)NCCN(C)C)c3c4cc5c(cc4ncc3c2cc1OC)OCO5 [Compound 216, reference compound] | 6.59 | 200 nM | 6.20 | 7.82 | 27 nM | 7.46 | 1400 nM | – |
| 1.0 | – | CC[C@@]1(O)C(=O)OCc2c1cc1n(c2=O)Cc2cc3c(CN(C)C)c(O)ccc3nc2-1 [Topotecan, topotecan, reference compound] | < 5.00 | 440 nM | < 5.00 | 7.35 | 40 nM | 7.68 | 440 nM | – |

| Structure (SMILES) | TOP1 Mediated DNA Cleavage (REC Value) (human topoisomerase I) | melting point | pIC50 ([4]; Mus musculus, P388CPT45, 96 h) | IC50 at 4 days (BCRP) | pIC50 [1, 8] | pIC50 [2, 9] | IC50 at 4 days [3] | pIC50 [5, 10] | IC50 at 4 days (MDR1) | also measured |
| --- | --- | --- | --- | --- | --- | --- | --- | --- | --- | --- |
| CC[C@@]1(O)C(=O)OCc2c1cc1n(c2=O)Cc2cc3ccccc3nc2-1 [CPT, Camptothecin, reference compound] | 0.2 | – | < 5.00 | – | – | – | – | – | – | IC50 at 4 days (BCRP; KBH5.0 cells (KB3-1 variant that overexpresses BCRP), KBH5.0, overexpresses BCRP, read-out: Cytotoxicity KBH5.0): 26 nM; pIC50 ([1]; Homo sapiens, 96 h, CPT-K5, four days continuous exposure, MTT, read-out: Cytotoxicity IC50 CPT-K5): < 5.00; pIC50 ([2]; Mus musculus, 96 h, P388, four days continuous exposure, MTT, read-out: Cytotoxicity IC50 P388): 7.85; IC50 at 4 days ([3]; KB3-1 cells (parent cell line), KB3-1 parent cell line, read-out: Cytotoxicity KB3-1): 15 nM; pIC50 ([5]; Homo sapiens, RPMI 8402, 96 h, RPMI8402, four days continuous exposure, MTT, read-out: Cytotoxicity IC50 RPMI8402): 8.22; IC50 at 4 days (MDR1; KBV-1, overexpresses MDR1, read-out: Cytotoxicity KBV-1): 25 nM |
| COc1cc2c(C(=O)NCC(C)(C)N(C)C)cc3c4cc5c(cc4ncc3c2cc1OC)OCO5 [Compound 31, 2,3-Dimethoxy-N-(2-(dimethylamino)-2-methylpropyl)-8,9-methylene-dioxybenzo[i] phenanthridine-12-carboxamide] | 0.1 | – | – | – | – | – | – | – | – | pIC50 [6]: 8.40; substrate for BCRP [6]: not substrates for BCRP; pIC50 [1]: 6.10; pIC50 [2]: 8.70; pIC50 (KB3-1 cell line): 9.00; pIC50 ([4]; P388/CPT45, four days continuous exposure, MTT): 6.60; pIC50 [5]: 8.70; pIC50 [7]: 7.52 |
